Reference: US20220272990A1, “Methods and Compositions of the Botanical Extract to Promote and Boost Plant Growth and Prevent and Suppress Plant Diseases” (priority 2019, published 2022)

What was measured:
[1] = tested on: Fusarium graminearum; format: cell-based; details: thyme, yarrow extracts; 35% ethanol
[2] = tested on: Env. Salmonella (S22); assay: Burkholder's spot bioassay on carpet of bacteria; format: cell-based; details: Salmonella spp. (S22); composition 2% + thymol 1:512, or single dose of thymol 1:512
Procedure: Referring now to FIGS. 26A to 26C, environmental Salmonella (S22) treated with thyme, yarrow, the botanical composition and control (C) are shown. […] A determined volume of (i.e. 10 μl) dissolved extract from each concentration is spotted on carpet of bacteria.

[3] = tested on: Xanthomonas campestris; assay: Burkholder's spot bioassay on carpet of bacteria; format: cell-based
[4] = tested on: Pathogenic Salmonella (S1); assay: Burkholder's spot bioassay on carpet of bacteria; format: cell-based; details: Salmonella spp. (SL1); composition 2% + thymol 1:512, or single dose of thymol 1:512
[5] = tested on: Salmonella (S31); assay: Burkholder's spot bioassay on carpet of bacteria; format: cell-based; details: Salmonella spp. (S531); composition 2% + thymol 1:512, or single dose of thymol 1:512
Source text: Referring now to FIG. 28, Salmonella (S31—mungbean sprout isolate) treated with thyme is shown.

[6] = tested on: Aspergillus ochraceus; assay: Antifungal and MIC spot assay on carpet of fungi; details: composition 1% + thymol 1:768, or thymol 1:768 alone

Structure (SMILES)	inhibition of spore germination [1]	antimicrobial effectiveness [2]	antimicrobial effectiveness [3]	antimicrobial effectiveness [4]	antimicrobial effectiveness [5]	antifungal effectiveness on growth [6]
CCO [35% ethanol, ethanol]	complete inhibition	–	–	–	–	–
Cc1ccc(C(C)C)c(O)c1 [thymol]	–	not effective	not effective	not effective	not effective	not effective
